# In patent US20150307938A1, “METHOD TO IDENTIFY A NOVEL CLASS OF IMMUNOLOGIC ADJUVANTS” (Lancell, L.L.C., priority 2011, published 2015):
# Tested on: skin
# Experiment: Affymetrix microarray of skin, DBP-4 hr and analogs vs. untreated; gene selection by log-2 fold change, Wilcoxon, Kendall tau (Tables 8, 9)
# Assay type: in vivo, mouse
smiles,measurement,setting,value
"CCCCOC(=O)c1ccccc1C(=O)OCCCC [DBP, dibutylphthalate]",Wilcoxon: Pigp,"gene Pigp, NM_019543_at, DBP-4 hr vs. untreated",No
same,Kendall: Pigp,"gene Pigp, NM_019543_at, gene expression vs. output",Yes
same,Wilcoxon: Pkp4,"gene Pkp4, NM_026361_at, DBP-4 hr vs. untreated",No
same,Kendall: Pkp4,"gene Pkp4, NM_026361_at, gene expression vs. output",Yes
same,Wilcoxon: Plk3,"gene Plk3, NM_013807_at, DBP-4 hr vs. untreated",No
same,Kendall: Plk3,"gene Plk3, NM_013807_at, gene expression vs. output",Yes
same,Wilcoxon: Polr2g,"gene Polr2g, NM_026329_at, DBP-4 hr vs. untreated",No
same,Kendall: Polr2g,"gene Polr2g, NM_026329_at, gene expression vs. output",Yes
same,Wilcoxon: Pparg,"gene Pparg, NM_011146_at, DBP-4 hr vs. untreated",No
same,Kendall: Pparg,"gene Pparg, NM_011146_at, gene expression vs. output",Yes
same,Wilcoxon: Ppp1r7,"gene Ppp1r7, NM_023200_at, DBP-4 hr vs. untreated",No
same,Kendall: Ppp1r7,"gene Ppp1r7, NM_023200_at, gene expression vs. output",Yes
same,Wilcoxon: Prokr1,"gene Prokr1, NM_021381_at, DBP-4 hr vs. untreated",No
same,Kendall: Prokr1,"gene Prokr1, NM_021381_at, gene expression vs. output",Yes
same,Wilcoxon: Ptpn1,"gene Ptpn1, NM_011201_at, DBP-4 hr vs. untreated",No
same,Kendall: Ptpn1,"gene Ptpn1, NM_011201_at, gene expression vs. output",Yes
same,Wilcoxon: Rabgef1,"gene Rabgef1, NM_019983_at, DBP-4 hr vs. untreated",No
same,Kendall: Rabgef1,"gene Rabgef1, NM_019983_at, gene expression vs. output",Yes
same,Wilcoxon: Rai12,"gene Rai12, NM_018740_at, DBP-4 hr vs. untreated",No
same,Kendall: Rai12,"gene Rai12, NM_018740_at, gene expression vs. output",Yes
same,Wilcoxon: Rbbp6,"gene Rbbp6, NM_011247_at, DBP-4 hr vs. untreated",No
same,Kendall: Rbbp6,"gene Rbbp6, NM_011247_at, gene expression vs. output",Yes
same,Wilcoxon: Rpl7l1,"gene Rpl7l1, NM_025433_at, DBP-4 hr vs. untreated",No
same,Kendall: Rpl7l1,"gene Rpl7l1, NM_025433_at, gene expression vs. output",Yes
same,Wilcoxon: Sema4d,"gene Sema4d, NM_013660_at, DBP-4 hr vs. untreated",No
same,Kendall: Sema4d,"gene Sema4d, NM_013660_at, gene expression vs. output",Yes
same,Wilcoxon: Siae,"gene Siae, NM_011734_at, DBP-4 hr vs. untreated",No
same,Kendall: Siae,"gene Siae, NM_011734_at, gene expression vs. output",Yes
same,Wilcoxon: Sirt1,"gene Sirt1, NM_019812_at, DBP-4 hr vs. untreated",No
same,Kendall: Sirt1,"gene Sirt1, NM_019812_at, gene expression vs. output",Yes
same,Wilcoxon: Slc9a3r1,"gene Slc9a3r1, NM_012030_at, DBP-4 hr vs. untreated",No
same,Kendall: Slc9a3r1,"gene Slc9a3r1, NM_012030_at, gene expression vs. output",Yes
same,Wilcoxon: Slc30a4,"gene Slc30a4, NM_011774_at, DBP-4 hr vs. untreated",No
same,Kendall: Slc30a4,"gene Slc30a4, NM_011774_at, gene expression vs. output",Yes
same,Wilcoxon: Slc35a1,"gene Slc35a1, NM_011895_at, DBP-4 hr vs. untreated",No
same,Kendall: Slc35a1,"gene Slc35a1, NM_011895_at, gene expression vs. output",Yes
same,Wilcoxon: Smarcb1,"gene Smarcb1, NM_011418_at, DBP-4 hr vs. untreated",No
same,Kendall: Smarcb1,"gene Smarcb1, NM_011418_at, gene expression vs. output",Yes
same,Wilcoxon: Srsf6,"gene Srsf6, NM_026499_at, DBP-4 hr vs. untreated",No
same,Kendall: Srsf6,"gene Srsf6, NM_026499_at, gene expression vs. output",Yes
same,Wilcoxon: Stx17,"gene Stx17, NM_026343_at, DBP-4 hr vs. untreated",No
same,Kendall: Stx17,"gene Stx17, NM_026343_at, gene expression vs. output",Yes
same,Wilcoxon: Tmed1,"gene Tmed1, NM_010744_at, DBP-4 hr vs. untreated",No
same,Kendall: Tmed1,"gene Tmed1, NM_010744_at, gene expression vs. output",Yes
same,Wilcoxon: Tmem208,"gene Tmem208, NM_025486_at, DBP-4 hr vs. untreated",No
same,Kendall: Tmem208,"gene Tmem208, NM_025486_at, gene expression vs. output",Yes
same,Wilcoxon: Tnfrsf1a,"gene Tnfrsf1a, NM_011609_at, DBP-4 hr vs. untreated",No
same,Kendall: Tnfrsf1a,"gene Tnfrsf1a, NM_011609_at, gene expression vs. output",Yes
same,Wilcoxon: Tnfrsf9,"gene Tnfrsf9, NM_011612_at, DBP-4 hr vs. untreated",No
same,Kendall: Tnfrsf9,"gene Tnfrsf9, NM_011612_at, gene expression vs. output",Yes
same,Wilcoxon: Trappc2l,"gene Trappc2l, NM_021502_at, DBP-4 hr vs. untreated",No
same,Kendall: Trappc2l,"gene Trappc2l, NM_021502_at, gene expression vs. output",Yes
same,Wilcoxon: Tril,"gene Tril, NM_025817_at, DBP-4 hr vs. untreated",No
same,Kendall: Tril,"gene Tril, NM_025817_at, gene expression vs. output",Yes
same,Wilcoxon: Trim12a,"gene Trim12a, NM_023835_at, DBP-4 hr vs. untreated",No
same,Kendall: Trim12a,"gene Trim12a, NM_023835_at, gene expression vs. output",Yes
same,Wilcoxon: Trip4,"gene Trip4, NM_019797_at, DBP-4 hr vs. untreated",No
same,Kendall: Trip4,"gene Trip4, NM_019797_at, gene expression vs. output",Yes
same,Wilcoxon: Trp63,"gene Trp63, NM_011641_at, DBP-4 hr vs. untreated",No
same,Kendall: Trp63,"gene Trp63, NM_011641_at, gene expression vs. output",Yes
same,Wilcoxon: Trpv2,"gene Trpv2, NM_011706_at, DBP-4 hr vs. untreated",No
same,Kendall: Trpv2,"gene Trpv2, NM_011706_at, gene expression vs. output",Yes
same,Wilcoxon: Tsn,"gene Tsn, NM_011650_at, DBP-4 hr vs. untreated",No
same,Kendall: Tsn,"gene Tsn, NM_011650_at, gene expression vs. output",Yes
same,Wilcoxon: Ufc1,"gene Ufc1, NM_025388_at, DBP-4 hr vs. untreated",No
same,Kendall: Ufc1,"gene Ufc1, NM_025388_at, gene expression vs. output",Yes
same,Wilcoxon: Ulk2,"gene Ulk2, NM_013881_at, DBP-4 hr vs. untreated",No
same,Kendall: Ulk2,"gene Ulk2, NM_013881_at, gene expression vs. output",Yes
same,Wilcoxon: Wbp1,"gene Wbp1, NM_016757_at, DBP-4 hr vs. untreated",No
same,Kendall: Wbp1,"gene Wbp1, NM_016757_at, gene expression vs. output",Yes
same,Wilcoxon: Zfp68,"gene Zfp68, NM_013844_at, DBP-4 hr vs. untreated",No
same,Kendall: Zfp68,"gene Zfp68, NM_013844_at, gene expression vs. output",Yes
same,Wilcoxon: Zfp90,"gene Zfp90, NM_011764_at, DBP-4 hr vs. untreated",No
same,Kendall: Zfp90,"gene Zfp90, NM_011764_at, gene expression vs. output",Yes
same,Wilcoxon: Zkscan3,"gene Zkscan3, NM_023685_at, DBP-4 hr vs. untreated",No
same,Kendall: Zkscan3,"gene Zkscan3, NM_023685_at, gene expression vs. output",Yes
same,Wilcoxon: Zkscan6,"gene Zkscan6, NM_026107_at, DBP-4 hr vs. untreated",No
same,Kendall: Zkscan6,"gene Zkscan6, NM_026107_at, gene expression vs. output",Yes
same,1110032A04Rik NM_133675_at ≧2-Fold change,"mouse, in vivo",No
same,1600029D21Rik (NM_029639_at) ≧2-Fold change,"mouse, in vivo",Yes
same,2010002N04Rik (NM_134133_at) ≧2-Fold change,"mouse, in vivo",Yes
same,2310016C08Rik (NM_023516_at) ≧2-Fold change,"mouse, in vivo",Yes
same,2510002D24Rik NM_001033164_at ≧2-Fold change,"mouse, in vivo",No
same,2510009E07Rik NM_001001881_at ≧2-Fold change,"mouse, in vivo",No
same,2610528A11Rik XR_105647_at ≧2-Fold change,"mouse, in vivo",No
same,1500015010Rik NM_024283_at ≧2-Fold change,"mouse, in vivo",No
same,1810011010Rik (NM_026931_at) ≧2-Fold change,"mouse, in vivo",Yes
same,3110079015Rik NM_028473_at ≧2-Fold change,"mouse, in vivo",No
same,A2m NM_175628_at ≧2-Fold change,"mouse, in vivo",No
